Results taken from ChEMBL document CHEMBL1201862, “PubChem BioAssay data set” (2004).
The source made the active and inactive calls.

Tests used:
[1] = system: BJ; assay: cytotoxicity toward BJ-TERT-LT-ST fibroblasts, dose response, cell-based, RAS-independent, luminescence (AID 1935); format: functional; settings: Homo sapiens;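 also: BJ fibroblasts immortalized with TERT plus LT and ST oncogenes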
[2] = target: T1, Exodeoxyribonuclease V (Escherichia coli (strain K12), UniProt P04993+P07648+P08394); assay: E. coli RecBCD inhibitors, dose response, counter-screen for AddAB inhibitor project, absorbance, V66 E. coli, mutant T4 phage (AID 492957); format: functional, cell-based, Escherichia coli str. K-12 substr. MG1655
T1 sequence (P04993 whole entry): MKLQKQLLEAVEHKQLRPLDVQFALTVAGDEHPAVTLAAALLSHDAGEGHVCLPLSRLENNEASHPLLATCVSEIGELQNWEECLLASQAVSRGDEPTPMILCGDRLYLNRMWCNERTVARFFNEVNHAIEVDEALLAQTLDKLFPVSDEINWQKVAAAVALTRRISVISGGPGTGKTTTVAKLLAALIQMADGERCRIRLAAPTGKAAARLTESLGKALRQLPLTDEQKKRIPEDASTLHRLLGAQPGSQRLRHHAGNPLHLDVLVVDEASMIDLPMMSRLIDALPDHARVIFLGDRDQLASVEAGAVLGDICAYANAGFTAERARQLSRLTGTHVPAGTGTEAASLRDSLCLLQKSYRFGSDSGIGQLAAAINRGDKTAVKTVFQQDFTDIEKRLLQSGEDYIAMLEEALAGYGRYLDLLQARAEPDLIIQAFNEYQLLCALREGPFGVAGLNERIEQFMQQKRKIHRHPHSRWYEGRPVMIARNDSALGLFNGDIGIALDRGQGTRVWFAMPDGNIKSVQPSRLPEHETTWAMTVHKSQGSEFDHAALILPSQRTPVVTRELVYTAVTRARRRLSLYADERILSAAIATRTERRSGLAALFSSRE
T1 sequence (P07648 whole entry): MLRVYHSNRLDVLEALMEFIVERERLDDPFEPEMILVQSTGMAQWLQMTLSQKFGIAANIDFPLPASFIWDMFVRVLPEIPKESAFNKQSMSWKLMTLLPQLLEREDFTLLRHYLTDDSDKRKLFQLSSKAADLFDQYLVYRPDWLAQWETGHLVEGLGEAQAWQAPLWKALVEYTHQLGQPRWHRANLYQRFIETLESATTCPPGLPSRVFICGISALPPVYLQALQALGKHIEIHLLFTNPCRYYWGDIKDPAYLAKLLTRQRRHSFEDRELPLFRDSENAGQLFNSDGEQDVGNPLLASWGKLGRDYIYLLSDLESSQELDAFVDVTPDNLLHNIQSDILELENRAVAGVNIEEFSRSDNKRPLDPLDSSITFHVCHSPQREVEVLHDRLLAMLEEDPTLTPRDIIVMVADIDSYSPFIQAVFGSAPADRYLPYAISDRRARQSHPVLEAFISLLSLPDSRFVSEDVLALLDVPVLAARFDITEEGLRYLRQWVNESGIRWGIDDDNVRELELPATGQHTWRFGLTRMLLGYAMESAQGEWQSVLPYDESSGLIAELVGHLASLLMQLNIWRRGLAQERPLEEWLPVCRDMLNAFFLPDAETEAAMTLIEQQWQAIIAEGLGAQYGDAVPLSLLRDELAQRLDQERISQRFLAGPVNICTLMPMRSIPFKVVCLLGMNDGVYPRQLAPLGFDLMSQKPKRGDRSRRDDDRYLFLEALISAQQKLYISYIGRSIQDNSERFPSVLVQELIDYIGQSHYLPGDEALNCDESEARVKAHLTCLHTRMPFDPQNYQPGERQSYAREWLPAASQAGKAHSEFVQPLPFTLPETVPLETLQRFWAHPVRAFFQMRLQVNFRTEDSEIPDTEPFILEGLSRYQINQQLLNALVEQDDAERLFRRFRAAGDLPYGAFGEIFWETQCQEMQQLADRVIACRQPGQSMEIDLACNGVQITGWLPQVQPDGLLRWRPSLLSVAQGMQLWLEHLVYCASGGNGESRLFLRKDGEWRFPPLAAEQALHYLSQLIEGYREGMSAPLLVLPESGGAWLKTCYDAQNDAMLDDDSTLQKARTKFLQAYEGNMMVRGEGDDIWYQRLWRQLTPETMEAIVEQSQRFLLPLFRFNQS
T1 sequence (P08394 whole entry): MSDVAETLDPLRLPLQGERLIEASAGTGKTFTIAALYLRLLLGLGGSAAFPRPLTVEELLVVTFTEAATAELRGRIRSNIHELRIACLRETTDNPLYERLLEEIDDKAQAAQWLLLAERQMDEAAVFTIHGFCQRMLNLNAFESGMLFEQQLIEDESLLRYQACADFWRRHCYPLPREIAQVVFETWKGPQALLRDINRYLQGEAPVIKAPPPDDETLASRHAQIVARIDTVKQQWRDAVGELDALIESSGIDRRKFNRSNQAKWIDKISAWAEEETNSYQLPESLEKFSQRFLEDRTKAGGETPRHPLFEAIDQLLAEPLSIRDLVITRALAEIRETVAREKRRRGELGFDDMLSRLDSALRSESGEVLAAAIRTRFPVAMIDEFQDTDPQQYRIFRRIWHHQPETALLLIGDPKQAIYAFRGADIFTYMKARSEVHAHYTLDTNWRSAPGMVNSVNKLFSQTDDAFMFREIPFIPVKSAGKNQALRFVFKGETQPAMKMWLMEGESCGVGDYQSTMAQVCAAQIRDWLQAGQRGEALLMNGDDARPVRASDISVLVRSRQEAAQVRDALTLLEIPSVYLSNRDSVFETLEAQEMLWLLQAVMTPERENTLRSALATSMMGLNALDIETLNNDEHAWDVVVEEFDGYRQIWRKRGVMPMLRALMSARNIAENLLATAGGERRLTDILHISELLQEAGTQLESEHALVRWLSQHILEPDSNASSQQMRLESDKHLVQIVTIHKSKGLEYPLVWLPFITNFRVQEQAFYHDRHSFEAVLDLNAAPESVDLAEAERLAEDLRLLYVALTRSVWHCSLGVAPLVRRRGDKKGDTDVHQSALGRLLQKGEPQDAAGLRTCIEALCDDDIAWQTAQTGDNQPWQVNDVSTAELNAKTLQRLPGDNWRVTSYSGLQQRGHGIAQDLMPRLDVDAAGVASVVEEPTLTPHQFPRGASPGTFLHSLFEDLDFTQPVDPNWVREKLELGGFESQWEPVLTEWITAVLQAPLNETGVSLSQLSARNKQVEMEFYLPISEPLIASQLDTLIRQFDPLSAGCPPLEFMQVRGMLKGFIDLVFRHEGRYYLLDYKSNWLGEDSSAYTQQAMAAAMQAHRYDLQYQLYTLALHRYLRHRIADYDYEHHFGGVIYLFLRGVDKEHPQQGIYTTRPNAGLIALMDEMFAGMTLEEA

[3] = system: BJ; assay: cells; format: functional, cell-based; settings: Homo sapiens
[4] = system: BJ; assay: cytotoxicity toward BJ-TERT fibroblasts, dose response, cell-based, RAS-independent, luminescence (AID 1933); format: functional; settings: Homo sapiens
[5] = cells; format: functional, cell-based
[6] = cells; format: functional, cell-based; remark: listed apart in the source
[7] = system: INS1; assay: beta cell apoptosis inhibitors, cytokine rescue, dose response, luminescence, retest (AID 449756); format: functional, cell-based; settings: Rattus norvegicus;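 also: cell death triggered by IL-1 beta plus TNF-alpha plus IFN-gamma mixture; protective hits raise ATP signal compared with cytokine alone wells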
[8] = cytotoxicity toward DRD oncogenic fibroblasts, dose response, cell-based, non-viral oncogenic, luminescence (AID 1934); format: functional; settings: Homo sapiens
[9] = Counterscreen for AddAB inhibitors: absorbance-based bacterial cell-based high throughput dose response assay for inhibitors of bacterial viability. [Related pubchem assays (depositor defined):AID435030, AID449728, AID449731, AID488942, AID488955, AID488956]; format: functional
[10] = system: BJ; assay: cytotoxicity toward Ras-transformed BJeLR fibroblasts, dose response, cell-based, alamar blue fluorescence, cherrypicked samples (AID 2631); format: functional; settings: Homo sapiens;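 also: confirmatory dose-response assay in RAS-dependent BJ fibroblasts engineered with TERT, LT and ST, with cytotoxicity read by fluorescence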
[11] = target: T2, Carboxy-terminal domain RNA polymerase II polypeptide A small phosphatase 1 (Homo sapiens, UniProt Q9GZU7); assay: inhibitors of CTDSP1, concentration-response testing, biochemical assay, absorbance-based, actives from ultra-high-throughput screening (AID 540297); format: functional
T2 sequence (Q9GZU7 whole entry): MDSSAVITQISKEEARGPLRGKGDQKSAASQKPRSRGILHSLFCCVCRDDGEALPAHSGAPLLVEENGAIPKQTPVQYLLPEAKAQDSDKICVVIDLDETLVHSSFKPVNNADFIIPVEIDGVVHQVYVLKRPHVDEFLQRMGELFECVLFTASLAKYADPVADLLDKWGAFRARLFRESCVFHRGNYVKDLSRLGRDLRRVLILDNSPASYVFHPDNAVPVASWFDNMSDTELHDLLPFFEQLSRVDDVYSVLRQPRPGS

[12] = system: Vero; assay: cells; format: functional; settings: Chlorocebus sabaeus
[13] = system: Vero; assay: cells; format: functional, cell-based; settings: Chlorocebus sabaeus
[14] = target: DNA dC->dU-editing enzyme APOBEC-3G (Homo sapiens, UniProt Q9HC16); format: functional;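 also: Dose-response counterscreen measuring inhibition of APOBEC3G DNA deaminase activity, run while confirming APOBEC3A inhibitors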
[15] = target: DNA dC->dU-editing enzyme APOBEC-3A (Homo sapiens, UniProt P31941); assay: Dose Response confirmation of small molecule APOBEC3A DNA Deaminase Inhibitors via a fluorescence-based single-stranded DNA deaminase assay. [Related pubchem assays (depositor defined):AID493011, AID493024]; format: functional
[16] = target: T3, Protein skinhead-1 (Caenorhabditis elegans, UniProt P34707); format: functional
T3 sequence (P34707 whole entry): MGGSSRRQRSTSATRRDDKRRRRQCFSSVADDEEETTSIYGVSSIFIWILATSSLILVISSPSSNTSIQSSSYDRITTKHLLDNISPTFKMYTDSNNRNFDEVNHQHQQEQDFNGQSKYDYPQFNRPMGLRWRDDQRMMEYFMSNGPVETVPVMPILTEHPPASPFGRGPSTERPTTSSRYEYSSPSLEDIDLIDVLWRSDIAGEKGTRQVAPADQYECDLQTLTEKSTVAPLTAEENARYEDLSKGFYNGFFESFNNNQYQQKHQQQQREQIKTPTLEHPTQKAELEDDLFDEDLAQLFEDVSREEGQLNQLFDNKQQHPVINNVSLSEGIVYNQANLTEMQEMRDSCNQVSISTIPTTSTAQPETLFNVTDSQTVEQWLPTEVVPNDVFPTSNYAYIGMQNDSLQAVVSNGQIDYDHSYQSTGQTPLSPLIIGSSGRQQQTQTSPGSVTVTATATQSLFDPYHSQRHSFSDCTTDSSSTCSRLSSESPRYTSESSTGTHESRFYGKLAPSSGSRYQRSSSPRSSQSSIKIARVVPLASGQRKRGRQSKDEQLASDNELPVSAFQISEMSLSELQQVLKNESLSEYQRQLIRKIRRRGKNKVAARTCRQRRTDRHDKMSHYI

Sequence of DNA dC->dU-editing enzyme APOBEC-3A (P31941 whole entry): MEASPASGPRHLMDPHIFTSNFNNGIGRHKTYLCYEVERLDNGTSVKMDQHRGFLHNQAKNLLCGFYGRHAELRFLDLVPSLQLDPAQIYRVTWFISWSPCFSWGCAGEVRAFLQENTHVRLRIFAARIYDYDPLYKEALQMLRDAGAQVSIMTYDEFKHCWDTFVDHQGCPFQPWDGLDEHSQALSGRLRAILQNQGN
Sequence of DNA dC->dU-editing enzyme APOBEC-3G (Q9HC16 whole entry): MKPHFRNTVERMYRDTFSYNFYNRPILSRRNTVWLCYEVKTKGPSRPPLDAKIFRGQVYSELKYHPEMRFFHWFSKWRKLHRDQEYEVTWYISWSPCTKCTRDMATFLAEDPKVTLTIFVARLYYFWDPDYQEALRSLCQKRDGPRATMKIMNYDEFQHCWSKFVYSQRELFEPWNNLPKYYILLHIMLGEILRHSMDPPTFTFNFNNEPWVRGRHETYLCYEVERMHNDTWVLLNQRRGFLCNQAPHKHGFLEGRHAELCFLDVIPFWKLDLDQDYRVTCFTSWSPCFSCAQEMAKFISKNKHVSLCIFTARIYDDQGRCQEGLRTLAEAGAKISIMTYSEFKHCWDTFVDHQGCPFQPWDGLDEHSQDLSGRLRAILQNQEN

C/C(=N\Nc1ccc2nncn2n1)c1ccccn1
EC50 [1]: 8.41 µM (inconclusive) | IC50 [2]: 57.1 µM (inactive) | EC50 [3]: 4.29 µM (active) | EC50 [4]: 16 µM (active) | EC50 [5]: 6.99 µM (active) | EC50 [6]: > 350 µM (not active) | AC50 [7]: 0.898 µM (active) | EC50 [8]: 4.95 µM (active) | IC50 [9]: 114 µM (inactive) | EC50 [10]: 0.912 µM (active)

Cc1c(C(=O)O)cccc1-c1ccc(/C=N/n2cnnc2)o1
IC50 [11]: 6.52 µM (active)

CN1CCN(CCCN2c3ccccc3Sc3ccc(S(=O)(=O)N(C)C)cc32)CC1
CC50 [12]: > 25 µM (active) | IC50 [13]: > 25 µM (active)

Cc1ccn2c(=O)nc(SCC(=O)NCc3ccccc3Cl)nc2c1
IC50 [11]: 8.34 µM (active)

CC(c1ccccc1)C1OCC(C[N+]2(C)CCCCC2)O1 (stereo unspecified)
IC50 [14]: 2.72 µM (active) | IC50 [15]: 2.81 µM (active) | IC50 [11]: 2.75 µM (active)

Cn1cc(CN2CCCC(C(=O)Nc3ccc(-c4cccc(F)c4)cc3)C2)cn1 (stereo unspecified)
CC50 [12]: 22.3 µM (active) | IC50 [13]: 22.6 µM (active)

CN(C)CCCN(C(=O)c1ccc2c(c1)OCCO2)c1nc2ccc(Cl)cc2s1
CC50 [12]: > 25 µM (active) | IC50 [13]: > 25 µM (active)

COc1ccc(C(=O)/C=C/c2ccc(OC)c(CN3CCOCC3)c2)cc1
IC50 [16]: 6.86 µM (active) | CC50 [12]: 22.6 µM (active) | IC50 [13]: 9.3 µM (active)

O=C(Cn1cnc2ccccc21)Nc1ccc2c(c1)OCCCO2
IC50 [2]: > 119 µM (inactive) | IC50 [9]: > 119 µM (inactive)
